Assay: xn = mol fraction of the nth substance listed
Settings: 101 kPa

CCCCCC[n+]1ccn(C)c1.F[B-](F)(F)F + CC(C)O
viscosity [mPa·s]
Settings | x2 = 0 | x2 = 0.1493 | x2 = 0.2289 | x2 = 0.2992 | x2 = 0.3752 | x2 = 0.4942 | x2 = 0.5845 | x2 = 0.7067 | x2 = 0.762 | x2 = 0.9165
293.15 K | 230 | 113 | 78 | 57.1 | 41 | 24.9 | 16.8 | 10.05 | 7.82 | –
303.15 K | 130 | – | 48.2 | 36.1 | – | 16.9 | – | – | – | 2.65
313.15 K | 78 | 42.6 | 31.7 | – | 18.8 | 12.2 | 8.53 | 5.15 | – | 1.96
323.15 K | – | 28.1 | – | – | 14.6 | 9.3 | 6.62 | 3.95 | 3.04 | 1.5
333.15 K | – | – | 16.3 | 13.2 | – | 7.04 | 5.06 | 3.05 | – | 1.02

CC(C)O + CCCCCC[n+]1ccn(C)c1.F[B-](F)(F)F
x1 = 1
Settings | viscosity [mPa·s]
293.15 K | 2.36
303.15 K | 1.77
313.15 K | 1.33
323.15 K | 1.01

Source: a compilation of properties of binary mixtures (doi:10.1016/j.molliq.2012.02.004)
